According to US6737383B1, “Herbicidal oxadiazolidines” (priority 1999, dated 2004):

Experiments:
wild oat = assay: Test B pre/postemergence wild oat; format: in vivo, Avena fatua; conditions: for Plant response rating, Wild oats: Rate 250 g/ha
Summary of the method: (§1)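 Herbicidal effect was estimated by eye on a ten-point control scale after plants spent twelve to sixteen days in a greenhouse following soil or foliar treatment. Foliar sprays targeted plants at one to four leaves; all doses were formulated in a non-phytotoxic solvent with surfactant.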

giant foxtail = assay: Test B pre/postemergence giant foxtail; format: in vivo, Setaria faberii
Summary of the method: as §1

soybean = assay: Test B pre/postemergence soybean; format: in vivo, Glycine max
Summary of the method: as §1

rape = assay: Test B pre/postemergence rape; format: in vivo, Brassica napus
Summary of the method: as §1

rice = assay: Test B flood test rice; format: in vivo, Oryza sativa
Summary of the method: (§2)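 Flood test on plants grown to the 2-leaf stage; treated plants kept in greenhouse twelve to sixteen days, then visually rated against controls on a 0 (no effect) to 10 (complete control) scale.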

cocklebur = assay: Test B pre/postemergence cocklebur; format: in vivo, Xanthium strumarium
Summary of the method: as §1

corn = assay: Test B pre/postemergence corn; format: in vivo, Zea mays
Summary of the method: as §1

duck salad = assay: Test B flood test duck salad; format: in vivo, Heteranthera limosa
Summary of the method: as §2

morningglory = assay: Test B pre/postemergence morningglory; format: in vivo, Ipomoea hederacea
Summary of the method: as §1

bamyardgrass = assay: Test B flood test barnyardgrass; format: in vivo, Echinochloa crus-galli
Summary of the method: as §2

crabgrass = assay: Test B pre/postemergence crabgrass; format: in vivo, Digitaria sanguinalis
Summary of the method: as §1

wheat = assay: Test B pre/postemergence wheat; format: in vivo, Triticum aestivum; conditions: for Plant response rating, Wheat: Rate 250 g/ha
Summary of the method: as §1

pigweed = assay: Test B pre/postemergence pigweed; format: in vivo, Amaranthus retroflexus
Summary of the method: as §1

velvetleaf = assay: Test B pre/postemergence velvetleaf; format: in vivo, Abutilon theophrasti; conditions: for Plant response rating, Velvetleaf: Rate 250 g/ha
Summary of the method: as §1

sugar beet = assay: Test B pre/postemergence sugar beet; format: in vivo, Beta vulgaris; conditions: for Plant response rating, Sugarbeets: Rate 250 g/ha
Summary of the method: as §1

purple nutsedge = assay: Test B pre/postemergence purple nutsedge; format: in vivo, Cyperus rotundus
Summary of the method: as §1

[1] = Postemergence, Rate 125 g/ha, scale of 0 to 10 where 0 is no effect and 10 is complete control
[2] = Preemergence, Rate 62 g/ha, scale 0 to 10 (0 no effect, 10 complete control)
[3] = Preemergence, Rate 125 g/ha, 0 is no effect, 10 is complete control
[4] = Preemergence, scale of 0 to 10 where 0 is no effect and 10 is complete control
[5] = Preemergence, Rate 500 g/ha, scale 0 to 10 (0 no effect, 10 complete control)
[6] = Rate 62 g/ha, Postemergence, scale of 0 to 10 where 0 is no effect and 10 is complete control
[7] = Postemergence, scale 0 to 10, 0 is no effect, 10 is complete control
[8] = Rate 500 g/ha, Postemergence, scale 0 to 10, 0 no effect, 10 complete control
[9] = Postemergence, Rate 250 g/ha, scale 0 to 10, 0 no effect, 10 complete control
[10] = Preemergence, Rate 125 g/ha, scale 0 to 10 (0 no effect, 10 complete control)
[11] = Preemergence, Rate 250 g/ha, scale of 0 to 10 where 0 is no effect and 10 is complete control
[12] = Rate 250 g/ha, Postemergence, scale 0 to 10, 0 is no effect, 10 is complete control
[13] = Postemergence (flood test species), Rate 125 g/ha, scale of 0 to 10 where 0 is no effect and 10 is complete control
[14] = Rate 62 g/ha, Postemergence section, flood test species, scale of 0 to 10 where 0 is no effect and 10 is complete control
[15] = Rate 500 g/ha, listed under Postemergence (flood test species), scale 0 to 10, 0 no effect, 10 complete control
[16] = flood test, listed under Postemergence, Rate 250 g/ha, scale 0 to 10, 0 no effect, 10 complete control

SMILES: Cc1nn(C)c(C)c1-n1c(=O)on(C(=O)N(c2ccccc2)C(C)C)c1=O [Compound 120]
- Wild oats plant response rating (wild oat; [1]): 0
- Wild oats plant response rating (wild oat; [2]): 0
- Wild oats plant response rating (0 to 10 scale) (wild oat; [3]): 2
- Plant response rating, Wild oats (wild oat; [4]): 6
- Wild oats plant response rating (wild oat; [5]): 8
- Wild oats plant response rating (wild oat; [6]): 0
- Plant response rating, Wild oats (wild oat; [7]): 0
- Wild oats plant response rating (wild oat; [8]): 2
- Giant foxtail plant response rating (giant foxtail; [1]): 6
- Giant foxtail plant response rating (giant foxtail; [9]): 8
- Giant foxtail plant response rating (giant foxtail; [2]): 8
- Plant response rating, Giant foxtail (giant foxtail; [10]): 9
- Plant response rating, Giant foxtail (giant foxtail; [11]): 9
- Giant foxtail plant response rating (giant foxtail; [5]): 10
- Giant foxtail plant response rating (giant foxtail; [6]): 3
- Giant foxtail plant response rating (giant foxtail; [8]): 8
- Soybean plant response rating (soybean; [1]): 3
- Soybean plant response rating (soybean; [2]): 0
- Plant response rating, Soybean (soybean; [10]): 0
- Plant response rating, Soybean (soybean; [11]): 0
- Soybean plant response rating (soybean; [5]): 0
- Soybean plant response rating (soybean; [6]): 2
- Plant response rating, Soybean (soybean; [12]): 4
- Soybean plant response rating (soybean; [8]): 6
- Rape plant response rating (rape; [1]): 0
- Rape plant response rating (rape; [9]): 0
- Rape plant response rating (rape; [2]): 0
- Plant response rating, Rape (rape; [10]): 0
- Plant response rating, Rape (rape; [11]): 0
- Rape plant response rating (rape; [5]): 3
- Rape plant response rating (rape; [6]): 0
- Rape plant response rating (rape; [8]): 0
- Rice plant response rating (rice; [13]): 0
- Rice plant response rating (rice; [14]): 0
- Plant response rating, Rice (rice; Rate 250 g/ha, Postemergence (flood test), scale 0 to 10, 0 is no effect, 10 is complete control): 2
- Rice plant response rating (rice; [15]): 3
- Cocklebur plant response rating (cocklebur; [1]): 1
- Cocklebur plant response rating (cocklebur; [9]): 3
- Cocklebur plant response rating (cocklebur; [2]): 0
- Plant response rating, Cocklebur (cocklebur; [10]): 0
- Plant response rating, Cocklebur (cocklebur; [11]): 0
- Cocklebur plant response rating (cocklebur; [5]): 0
- Cocklebur plant response rating (cocklebur; [6]): 1
- Cocklebur plant response rating (cocklebur; [8]): 4
- Corn plant response rating (corn; [1]): 0
- Corn plant response rating (corn; [9]): 2
- Corn plant response rating (corn; [2]): 0
- Plant response rating, Corn (corn; [10]): 0
- Plant response rating, Corn (corn; [11]): 0
- Corn plant response rating (corn; [5]): 0
- Corn plant response rating (corn; [6]): 0
- Corn plant response rating (corn; [8]): 4
- Ducksalad plant response rating (duck salad; [13]): 0
- Ducksalad plant response rating (duck salad; [14]): 0
- Ducksalad plant response rating (duck salad; [15]): 0
- Ducksalad plant response rating (duck salad; [16]): 0
- Morningglory plant response rating (morningglory; [1]): 7
- Morningglory plant response rating (morningglory; [9]): 8
- Morningglory plant response rating (morningglory; [2]): 0
- Plant response rating, Morningglory (morningglory; [10]): 0
- Plant response rating, Morningglory (morningglory; [11]): 0
- Morningglory plant response rating (morningglory; [5]): 0
- Morningglory plant response rating (morningglory; [6]): 4
- Morningglory plant response rating (morningglory; [8]): 8
- Barnyardgrass plant response rating (bamyardgrass; Postemergence, Rate 62 g/ha, scale 0 to 10, 0 is no effect, 10 is complete control): 0
- Barnyardgrass plant response rating (bamyardgrass; Rate 125 g/ha, Postemergence section (flood test species), scale 0 to 10, 0 no effect, 10 complete control): 0
- Barnyardgrass plant response rating (bamyardgrass; [15]): 0
- Barnyardgrass plant response rating (bamyardgrass; [16]): 0
- Crabgrass plant response rating (crabgrass; [1]): 7
- Crabgrass plant response rating (crabgrass; [9]): 9
- Crabgrass plant response rating (crabgrass; [2]): 6
- Plant response rating, Crabgrass (crabgrass; [10]): 6
- Plant response rating, Crabgrass (crabgrass; [11]): 9
- Crabgrass plant response rating (crabgrass; [5]): 9
- Crabgrass plant response rating (crabgrass; [6]): 5
- Crabgrass plant response rating (crabgrass; [8]): 9
- Wheat plant response rating (wheat; [1]): 0
- Wheat plant response rating (wheat; [2]): 0
- Wheat plant response rating (0 to 10 scale) (wheat; [3]): 0
- Plant response rating, Wheat (wheat; [4]): 2
- Wheat plant response rating (wheat; [5]): 6
- Wheat plant response rating (wheat; [6]): 0
- Plant response rating, Wheat (wheat; [7]): 0
- Wheat plant response rating (wheat; [8]): 4
- Redroot pigweed plant response rating (pigweed; [1]): 0
- Redroot pigweed plant response rating (pigweed; [2]): 7
- Plant response rating, Redroot pigweed (pigweed; [10]): 8
- Plant response rating, Redroot pigweed (pigweed; [11]): 8
- Redroot pigweed plant response rating (pigweed; [5]): 8
- Redroot pigweed plant response rating (pigweed; [6]): 0
- Plant response rating, Redroot pigweed (pigweed; [12]): 0
- Redroot pigweed plant response rating (pigweed; [8]): 3
- Velvetleaf plant response rating (velvetleaf; [1]): 0
- Velvetleaf plant response rating (velvetleaf; [2]): 0
- Velvetleaf plant response rating (0 to 10 scale) (velvetleaf; [3]): 0
- Plant response rating, Velvetleaf (velvetleaf; [4]): 0
- Velvetleaf plant response rating (velvetleaf; [5]): 3
- Velvetleaf plant response rating (velvetleaf; [6]): 0
- Plant response rating, Velvetleaf (velvetleaf; [7]): 2
- Velvetleaf plant response rating (velvetleaf; [8]): 6
- Sugarbeets plant response rating (sugar beet; [1]): 0
- Sugarbeets plant response rating (sugar beet; [2]): 0
- Sugarbeets plant response rating (0 to 10 scale) (sugar beet; [3]): 2
- Plant response rating, Sugarbeets (sugar beet; [4]): 4
- Sugarbeets plant response rating (sugar beet; [5]): 7
- Sugarbeets plant response rating (sugar beet; [6]): 0
- Plant response rating, Sugarbeets (sugar beet; [7]): 0
- Sugarbeets plant response rating (sugar beet; [8]): 0
- Nutsedge plant response rating (purple nutsedge; [1]): 0
- Nutsedge plant response rating (purple nutsedge; [9]): 0
- Nutsedge plant response rating (purple nutsedge; [2]): 0
- Plant response rating, Nutsedge (purple nutsedge; [10]): 0
- Plant response rating, Nutsedge (purple nutsedge; [11]): 0
- Nutsedge plant response rating (purple nutsedge; [5]): 0
- Nutsedge plant response rating (purple nutsedge; [6]): 0
